Test results taken from patent US9198918B2, “Benzoxazepin PI3K inhibitor compounds and methods of use” (Genentech, Inc., priority 2009, dated 2015).
pEC50, pIC50: −log10 of the molar value.

Key:
[1] = target: T1, PI3K alpha (p110 alpha) (Homo sapiens, UniProt P42336); experiment: PI3K p110α (alpha) binding assay (Example 901); details: read-out: IC50, inhibition of PI3K alpha (binding to p110 alpha)
T1 construct: purchased Upstate Cell Signaling Solutions, Charlottesville, Va
Description: Determination of the PI3 kinase activity of a Formula I compound is possible by a number of direct and indirect detection methods.

[2] = test system: AU565; experiment: CellTiter-Glo cell proliferation assay, AU565; format: cell-based; details: Homo sapiens, Breast, mutation status WT
Procedure: (§1) Efficacy of Formula I compounds was measured by a cell proliferation assay employing the following protocol (Promega Corp. Technical Bulletin TB288; Mendoza et al (2002) Cancer Res. 62:5485-5488):
(§2) 1. An aliquot of 100 μl of cell culture containing about 104 cells (PC3, Detroit562, or MDAMB361.1) in medium was deposited in each well of a 384-well, opaque-walled plate.
(§3) 2. Control wells were prepared containing medium and without cells.
(§4) 3. The compound was added to the experimental wells and incubated for 3-5 days.
(§5) 4. The plates were equilibrated to room temperature for approximately 30 minutes.
(§6) 5. A volume of CellTiter-Glo Reagent equal to the volume of cell culture medium present in each well was added.
(§7) 6. The contents were mixed for 2 minutes on an orbital shaker to induce cell lysis.
(§8) 7. The plate was incubated at room temperature for 10 minutes to stabilize the luminescence signal.
(§9) 8. Luminescence was recorded and reported in graphs as RLU=relative luminescence units.
(§10) Alternatively, cells were seeded at optimal density in a 96 well plate and incubated for 4 days in the presence of test compound. Alamar Blue™ was subsequently added to the assay medium, and cells were incubated for 6 hr before reading at 544 nm excitation, 590 nm emission. EC50 values were calculated using a sigmoidal dose response curve fit. The term EC50 refers to the half maximal effective concentration and is the concentration at which a drug induces a response halfway between the baseline and maximum after some specified exposure time. It is commonly used as a measure of drug potency.
(§11) The anti-proliferative effects of Formula I exemplary compounds were measured by the CellTiter-Glo® Assay against various tumor cell lines, including the following: […]

[3] = test system: CAL120; experiment: CellTiter-Glo cell proliferation assay, CAL120; format: cell-based; details: Homo sapiens, CAL-120, Breast, mutation status WT
Procedure: as §1, §2, §3, §4, §5, §6
6. […]
as §8, §9
(§12) Alternatively, cells were seeded at optimal density in a 96 well plate and incubated for 4 days in the presence of test compound. Alamar Blue™ was subsequently added to the assay medium, and cells were incubated for 6 hr before reading at 544 nm excitation, 590 nm emission. EC50 values were calculated using a sigmoidal dose response curve fit. […]
as §11

[4] = test system: CAL51; experiment: CellTiter-Glo cell proliferation assay, CAL51; format: cell-based; details: Homo sapiens, CAL-51, Breast, mutation status PI3K/PTEN
Procedure: as §1, §2, §3, §4, §5, §6
6. […]
as §8, §9, §12, §11

[5] = test system: EFM19-2A; experiment: CellTiter-Glo cell proliferation assay, EFM19-2A; format: cell-based; details: EFM-192A, Breast, mutation status WT
Procedure: as §1, §2, §3, §4, §5, §6
6. […]
as §8, §9, §12, §11

[6] = test system: EVSA-T; experiment: CellTiter-Glo cell proliferation assay, EVSA-T; format: cell-based; details: Homo sapiens, Breast, mutation status PTEN
Procedure: as §1, §2, §3, §4, §5, §6, §7, §8, §9, §10, §11

[7] = test system: HCC1954; experiment: CellTiter-Glo cell proliferation assay, HCC1954; format: cell-based; details: Homo sapiens, Breast, mutation status PI3K
Procedure: as §1, §2, §3, §4, §5, §6, §7, §8, §9, §10, §11

[8] = test system: KPL4; experiment: CellTiter-Glo cell proliferation assay, KPL4; format: cell-based; details: Breast, mutation status PI3K
Procedure: as §1, §2, §3, §4, §5, §6, §7, §8, §9, §10, §11

[9] = test system: MCF7; experiment: CellTiter-Glo cell proliferation assay, MCF7; format: cell-based; details: Homo sapiens, Breast, mutation status PI3K
Procedure: as §1, §2, §3, §4, §5, §6
6. […]
as §8, §9, §12, §11

[10] = test system: MDA-MB-231; experiment: CellTiter-Glo cell proliferation assay, MDA-MB-231; format: cell-based; details: Homo sapiens, Breast, mutation status K-RAS
Procedure: as §1, §2, §3, §4, §5, §6
6. […]
as §8, §9, §12, §11

[11] = test system: MDA-MB-361.1; experiment: CellTiter-Glo cell proliferation assay, MDA-MB-361.1; format: cell-based; details: Breast, mutation status PI3K
Procedure: as §1, §2, §3, §4, §5, §6, §7, §8, §9, §10, §11

[12] = test system: MFM223; experiment: CellTiter-Glo cell proliferation assay, MFM223; format: cell-based; details: Homo sapiens, MFM-223, Breast, mutation status PI3K
Procedure: as §1, §2, §3, §4, §5, §6, §7, §8, §9, §10, §11

[13] = test system: SKBR3; experiment: CellTiter-Glo cell proliferation assay, SKBR3; format: cell-based; details: Homo sapiens, SK-BR-3, Breast, mutation status WT
Procedure: as §1, §2, §3, §4, §5, §6
6. […]
as §8, §9, §12, §11

[14] = test system: T47D; experiment: CellTiter-Glo cell proliferation assay, T47D; format: cell-based; details: Homo sapiens, Breast, mutation status PI3K
Procedure: as §1, §2, §3, §4, §5, §6, §7, §8, §9, §10, §11

[15] = test system: Colo205; experiment: CellTiter-Glo cell proliferation assay, Colo205; format: cell-based; details: Homo sapiens, COLO 205, Colon, mutation status B-Raf
Procedure: as §1, §2, §3, §4, §5, §6
6. […]
as §8, §9, §12, §11

[16] = test system: HCT116; experiment: CellTiter-Glo cell proliferation assay, HCT116; format: cell-based; details: Homo sapiens, HCT-116, Colon, mutation status PI3K/KRAS
Procedure: as §1, §2, §3, §4, §5, §6
6. […]
as §8, §9, §12, §11

[17] = test system: RKO; experiment: CellTiter-Glo cell proliferation assay, RKO; format: cell-based; details: Homo sapiens, Colon, mutation status PI3K
Procedure: as §1, §2, §3, §4, §5, §6
6. […]
as §8, §9, §12, §11

[18] = test system: LN229; experiment: CellTiter-Glo cell proliferation assay, LN229; format: cell-based; details: Homo sapiens, LN-229, Glioma, mutation status PI3K
Procedure: as §1, §2, §3, §4, §5, §6
6. […]
as §8, §9, §12, §11

[19] = test system: U87MG; experiment: CellTiter-Glo cell proliferation assay, U87MG; format: cell-based; details: Homo sapiens, U-87 MG, Glioma, mutation status PTEN
Procedure: as §1, §2, §3, §4, §5, §6
6. […]
as §8, §9, §12, §11

[20] = test system: H1703; experiment: CellTiter-Glo cell proliferation assay, H1703; format: cell-based; details: Homo sapiens, NCI-H1703, Lung(NSCLC), mutation status WT
Procedure: as §1, §2, §3, §4, §5, §6
6. […]
as §8, §9, §12, §11

[21] = test system: H2122; experiment: CellTiter-Glo cell proliferation assay, H2122; format: cell-based; details: Homo sapiens, NCI-H2122, Lung(NSCLC), mutation status K-RAS
Procedure: as §1, §2, §3, §4, §5, §6, §7, §8, §9, §10, §11

[22] = test system: 537MEL; experiment: CellTiter-Glo cell proliferation assay, 537MEL; format: cell-based; details: Homo sapiens, Melanoma, mutation status PTEN
Procedure: as §1, §2, §3, §4, §5, §6
6. […]
as §8, §9, §12, §11

[23] = test system: A2058; experiment: CellTiter-Glo cell proliferation assay, A2058; format: cell-based; details: Homo sapiens, Melanoma, mutation status PTEN
Procedure: as §1, §2, §3, §4, §5, §6
6. […]
as §8, §9, §12, §11

[24] = test system: A375; experiment: CellTiter-Glo cell proliferation assay, A375; format: cell-based; details: Homo sapiens, A-375, Melanoma, mutation status B-Raf
Procedure: as §1, §2, §3, §4, §5, §6
6. […]
as §8, §9, §12, §11

[25] = test system: IGROV1; experiment: CellTiter-Glo cell proliferation assay, IGROV1; format: cell-based; details: Homo sapiens, IGROV-1, Ovarian, mutation status PI3K
Procedure: as §1, §2, §3, §4, §5, §6
6. […]
as §8, §9, §12, §11

[26] = test system: TOV21GX1; experiment: CellTiter-Glo cell proliferation assay, TOV21GX1; format: cell-based; details: Ovarian, mutation status PI3K/PTEN
Procedure: as §1, §2, §3, §4, §5, §6
6. […]
as §8, §9, §12, §11

[27] = test system: PC3; experiment: CellTiter-Glo cell proliferation assay, PC3; format: cell-based; details: Homo sapiens, PC-3, Prostate, mutation status PTEN
Procedure: as §1, §2, §3, §4, §5, §6, §7, §8, §9, §10, §11

T1 sequence (P42336 whole entry): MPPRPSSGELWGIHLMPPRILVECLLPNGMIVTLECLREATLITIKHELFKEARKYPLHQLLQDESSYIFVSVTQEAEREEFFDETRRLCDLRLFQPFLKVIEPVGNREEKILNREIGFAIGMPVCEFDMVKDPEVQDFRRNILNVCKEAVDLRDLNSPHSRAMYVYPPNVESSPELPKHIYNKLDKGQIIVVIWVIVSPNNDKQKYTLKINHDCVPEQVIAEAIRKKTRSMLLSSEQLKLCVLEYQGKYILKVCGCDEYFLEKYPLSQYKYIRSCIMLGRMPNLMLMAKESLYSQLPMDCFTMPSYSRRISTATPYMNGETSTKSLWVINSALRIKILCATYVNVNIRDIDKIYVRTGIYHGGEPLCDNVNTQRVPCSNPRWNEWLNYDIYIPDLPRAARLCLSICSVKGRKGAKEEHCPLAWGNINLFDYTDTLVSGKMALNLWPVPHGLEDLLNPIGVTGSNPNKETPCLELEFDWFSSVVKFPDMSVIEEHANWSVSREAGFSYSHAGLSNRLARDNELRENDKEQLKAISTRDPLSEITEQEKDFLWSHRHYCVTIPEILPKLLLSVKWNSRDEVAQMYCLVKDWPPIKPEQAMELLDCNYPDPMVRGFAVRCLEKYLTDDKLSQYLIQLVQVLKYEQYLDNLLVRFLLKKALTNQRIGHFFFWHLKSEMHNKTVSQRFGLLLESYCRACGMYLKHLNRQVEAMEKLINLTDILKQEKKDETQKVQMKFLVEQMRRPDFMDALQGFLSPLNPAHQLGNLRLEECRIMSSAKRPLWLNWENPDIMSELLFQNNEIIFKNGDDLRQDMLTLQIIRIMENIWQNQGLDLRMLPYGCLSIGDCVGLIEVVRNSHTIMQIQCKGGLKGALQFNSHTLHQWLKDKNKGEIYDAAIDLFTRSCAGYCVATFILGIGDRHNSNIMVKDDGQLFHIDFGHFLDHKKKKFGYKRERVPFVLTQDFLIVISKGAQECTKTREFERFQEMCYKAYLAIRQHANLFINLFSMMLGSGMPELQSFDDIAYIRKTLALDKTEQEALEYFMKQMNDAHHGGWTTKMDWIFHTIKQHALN
T1 sequence (P27986 whole entry partner): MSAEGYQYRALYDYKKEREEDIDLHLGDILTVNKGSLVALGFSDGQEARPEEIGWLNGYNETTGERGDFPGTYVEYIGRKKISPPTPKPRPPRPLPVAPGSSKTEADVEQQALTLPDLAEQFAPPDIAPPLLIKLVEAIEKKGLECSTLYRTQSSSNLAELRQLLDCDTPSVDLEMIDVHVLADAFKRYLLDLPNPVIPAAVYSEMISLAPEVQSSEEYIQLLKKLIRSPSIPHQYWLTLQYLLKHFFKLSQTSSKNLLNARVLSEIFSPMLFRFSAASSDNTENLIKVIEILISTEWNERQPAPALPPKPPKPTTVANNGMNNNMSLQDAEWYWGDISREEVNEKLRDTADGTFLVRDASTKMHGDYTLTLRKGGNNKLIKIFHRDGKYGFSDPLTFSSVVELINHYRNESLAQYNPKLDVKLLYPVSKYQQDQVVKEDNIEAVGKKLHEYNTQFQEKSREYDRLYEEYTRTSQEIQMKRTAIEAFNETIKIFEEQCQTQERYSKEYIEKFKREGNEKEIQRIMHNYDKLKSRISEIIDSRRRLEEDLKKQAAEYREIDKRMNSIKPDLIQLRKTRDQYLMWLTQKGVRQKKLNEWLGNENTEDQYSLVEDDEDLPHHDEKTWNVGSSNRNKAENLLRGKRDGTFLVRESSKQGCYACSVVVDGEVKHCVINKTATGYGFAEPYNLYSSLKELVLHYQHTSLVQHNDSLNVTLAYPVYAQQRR

CC(C)n1ncnc1-c1cn2c(n1)-c1ccc(-c3cnn(CC(C)(C)O)c3)cc1OCC2 [compound 180, 1-(4-(2-(1-isopropyl-1H-1,2,4-triazol-5-yl)-5,6-dihydrobenzo[f]imidazo[1,2-d][1,4]oxazepin-9-yl)-1H-pyrazol-1-yl)-2-methylpropan-2-ol]
pIC50 [1]: 9.74
pEC50 [2]: 6.64
pEC50 [3]: 5.67
pEC50 [4]: 6.17
pEC50 [5]: 6.84
pEC50 [6]: 5.69
pEC50 [7]: 6.77
pEC50 [8]: 7.41
pEC50 [9]: 6.92
pEC50 [10]: ≤ 5.00
pEC50 [11]: 6.67
pEC50 [12]: 6.36
pEC50 [13]: 6.84
pEC50 [14]: 6.91
pEC50 [15]: 6.59
pEC50 [16]: 5.99
pEC50 [17]: 5.60
pEC50 [18]: 6.06
pEC50 [19]: 6.10
pEC50 [20]: 6.65
pEC50 [21]: 6.29
pEC50 [22]: 5.61
pEC50 [23]: ≤ 5.00
pEC50 [24]: ≤ 5.00
pEC50 [25]: 7.22
pEC50 [26]: 5.44
pEC50 [27]: 6.11
